This passage reports GI50 and TGI results from PubChem BioAssay (NCI).

Some test systems named below: COLO 205 colon; HT29 colon; K-562 leukemia; MOLT-4 leukemia; OVCAR-4 ovarian; OVCAR-5 ovarian; RPMI-8226 leukemia; SF-268 CNS; SR leukemia; UO-31 renal.
Holding throughout (assay): inhibition of tumour cell growth, NCI panel, 48 h

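Cells were grown in 96-well plates and exposed to each compound for 48 hours at five concentrations; endpoints were interpolated linearly between bracketing concentrations, or set to the highest concentration if not reached. Abbreviation: GI50, concentration required for 50% inhibition of growth. TGI denotes the concentration required for complete inhibition of growth.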 A value given as a limit tells only on which side of the number the result lay.

As for `Nc1nccc(-c2c(-c3ccc(F)cc3)nn3cc(C(F)(F)F)ccc23)n1`, the GI50 in the experiment on COLO 205 colon, with HT29 colon, in the experiment with K-562 leukemia, in the experiment on MOLT-4 leukemia, in the experiment on OVCAR-4 ovarian and in the experiment with OVCAR-5 ovarian was over 25 µM in each case. Moreover, the GI50 with RPMI-8226 leukemia, with SF-268 CNS, in the experiment on SR leukemia and in the experiment with UO-31 renal was over 25 µM each time. In addition, the TGI in the experiment on COLO 205 colon, with HT29 colon, in the experiment with K-562 leukemia, with MOLT-4 leukemia, with OVCAR-4 ovarian and in the experiment on OVCAR-5 ovarian was over 25 µM in each case. Besides, the TGI with RPMI-8226 leukemia, in the experiment on SF-268 CNS, in the experiment with SR leukemia and in the experiment on UO-31 renal was over 25 µM throughout.
`N#Cc1ccc(Sc2nc3ccccc3[nH]2)cc1`: the TGI with COLO 205 colon, with HT29 colon, with K-562 leukemia, in the experiment on MOLT-4 leukemia, with OVCAR-4 ovarian and in the experiment on OVCAR-5 ovarian was over 100 µM each time. Also, the TGI in the experiment on SF-268 CNS, with SR leukemia and in the experiment with UO-31 renal was over 100 µM throughout.
For `O=C(c1ccccc1)[C@H]1Nc2ccc(Cl)cc2[C@H]2CCC[C@@H]12`, the TGI in the experiment on COLO 205 colon was 91.7 µM; with HT29 colon it was 62.2 µM; in the experiment on K-562 leukemia it was 64.5 µM; with MOLT-4 leukemia it was 86.8 µM; in the experiment on OVCAR-4 ovarian, 75.9 µM; in the experiment with OVCAR-5 ovarian, over 100 µM. For the same compound, the TGI in the experiment on RPMI-8226 leukemia is 57.1 µM; with SF-268 CNS it was over 100 µM; with SR leukemia, over 100 µM; with UO-31 renal, over 100 µM.
As to `CCOC(=O)/C(=C/c1ccccn1)C(=O)c1ccccc1`, the TGI in the experiment on COLO 205 colon amounted to 28.3 µM; in the experiment on HT29 colon, 30.4 µM; in the experiment on K-562 leukemia, 85 µM; with MOLT-4 leukemia, 26 µM; in the experiment with OVCAR-4 ovarian it was 36.8 µM; with OVCAR-5 ovarian, 33.5 µM. For the same compound, the TGI in the experiment with RPMI-8226 leukemia amounted to 13.2 µM; in the experiment with SF-268 CNS, 44 µM; in the experiment on SR leukemia, 14.2 µM; in the experiment with UO-31 renal, 30 µM.
For `C(=Nc1nc(SCc2ccccc2)nc2[nH]ncc12)c1cccs1`, the GI50 in the experiment with COLO 205 colon is 22.2 µM; with HT29 colon, 38.2 µM; in the experiment with K-562 leukemia it was 35 µM; in the experiment with MOLT-4 leukemia, 23.6 µM; in the experiment with OVCAR-4 ovarian, over 100 µM; with OVCAR-5 ovarian, over 100 µM. Further, the GI50 with RPMI-8226 leukemia is 27.6 µM; with SF-268 CNS, 30.4 µM; with SR leukemia, 18.7 µM; with UO-31 renal it was 73.8 µM. Moreover, the TGI with COLO 205 colon was 76.4 µM; in the experiment on HT29 colon it was over 100 µM; in the experiment with K-562 leukemia it was over 100 µM; with MOLT-4 leukemia, 85.9 µM; with OVCAR-4 ovarian, over 100 µM; in the experiment with OVCAR-5 ovarian, over 100 µM. Moreover, the TGI is over 100 µM with RPMI-8226 leukemia, over 100 µM with SF-268 CNS, 65.3 µM with SR leukemia and over 100 µM in the experiment with UO-31 renal.
As for `O=C(COc1ccc(/C=C2\Oc3ccccc3C2=O)cc1)Nc1nc2ccccc2s1`, the GI50 in the experiment with COLO 205 colon was 32 µM; in the experiment with HT29 colon, 23.6 µM; in the experiment with K-562 leukemia, 16.7 µM; in the experiment on OVCAR-4 ovarian, 21.2 µM; in the experiment with OVCAR-5 ovarian, 39.4 µM; in the experiment on RPMI-8226 leukemia it was 2.79 µM. Moreover, the GI50 with SR leukemia was 2.38 µM; with UO-31 renal, 13 µM. Further, the TGI was over 89.8 µM with COLO 205 colon; over 100 µM with HT29 colon; over 100 µM in the experiment with K-562 leukemia; over 100 µM with OVCAR-4 ovarian; over 100 µM with OVCAR-5 ovarian; 15.7 µM in the experiment on RPMI-8226 leukemia. Moreover, the TGI was 8.57 µM with SR leukemia and over 57.6 µM with UO-31 renal.
For the compound `OC(c1ccccc1Br)(c1ccccc1Br)C(F)(F)F`, the TGI with COLO 205 colon was 33.1 µM; with HT29 colon, 38.3 µM; with MOLT-4 leukemia, 31.6 µM; in the experiment on OVCAR-4 ovarian, over 100 µM; in the experiment on OVCAR-5 ovarian, 70 µM; with SF-268 CNS, 43 µM. For the same compound, the TGI stood at 45.9 µM in the experiment with SR leukemia and 75.1 µM in the experiment with UO-31 renal.
In the case of `CCOC(=O)C1(C)CCC(C(C(=O)O)C(=O)O)CC1=O` (stereo unspecified), the TGI in the experiment on COLO 205 colon, in the experiment with HT29 colon, in the experiment on MOLT-4 leukemia, in the experiment on OVCAR-4 ovarian, with OVCAR-5 ovarian and in the experiment on RPMI-8226 leukemia was over 100 µM each time. Moreover, the TGI in the experiment on SF-268 CNS, with SR leukemia and in the experiment with UO-31 renal was over 100 µM each time.
Regarding `[O]=[V]([OH])([OH])[OH]`, the GI50 is over 100 µM in the experiment on COLO 205 colon; over 100 µM in the experiment on HT29 colon; over 100 µM in the experiment on K-562 leukemia; over 100 µM with MOLT-4 leukemia; 54.2 µM in the experiment with OVCAR-4 ovarian; over 100 µM with OVCAR-5 ovarian. Besides, the GI50 is over 100 µM in the experiment with SF-268 CNS, 36.3 µM with SR leukemia and over 100 µM in the experiment with UO-31 renal. Also, the TGI with COLO 205 colon, in the experiment on HT29 colon, in the experiment on K-562 leukemia, in the experiment with MOLT-4 leukemia, with OVCAR-4 ovarian and in the experiment with OVCAR-5 ovarian was over 100 µM throughout. Further, the TGI in the experiment with SF-268 CNS, in the experiment with SR leukemia and in the experiment with UO-31 renal was over 100 µM throughout.
`S=C1SCN(Cc2ccccc2)CN1Cc1ccco1`: the GI50 in the experiment with COLO 205 colon is 4.4 µM; in the experiment with HT29 colon, 3.17 µM; in the experiment with K-562 leukemia, 3.62 µM; with MOLT-4 leukemia it was 5.91 µM; in the experiment on OVCAR-5 ovarian, 9.73 µM; in the experiment with SF-268 CNS it was 3.59 µM. The GI50 in the experiment with SR leukemia was 1.87 µM; with UO-31 renal, 4.56 µM. Moreover, the TGI was 14.3 µM in the experiment on COLO 205 colon; 13.9 µM in the experiment on HT29 colon; over 100 µM in the experiment with K-562 leukemia; 76 µM in the experiment on MOLT-4 leukemia; 21.9 µM in the experiment with OVCAR-5 ovarian; 17.1 µM in the experiment with SF-268 CNS. Also, the TGI was over 100 µM with SR leukemia and 18.7 µM with UO-31 renal.
